Read-outs that look alike come from different tables or passages of the source.
Assays:
Type in all cases: binding
[1] = biological target: T1, GABARAP (Homo sapiens, UniProt O95166); assay: Bio-layer interferometry (BLI) affinity of SCOC LIR peptides for GABARAP
T1 construct: fused with a Gly-Ser linker to full-length GABARAP (GST-GABARAP (pAL)); GST (followed by 3C protease cleavage site) (N); made in house
Procedure: (§1) Bio-layer interferometry (BLI) is an optical analytical technique for measuring kinetics of interactions in real-time. The biosensor tip surface immobilized with a ligand is incubated with an analyte in solution, resulting in an increase in optical thickness at the biosensor tip and a wavelength shift, which is a direct measure of the change in thickness. Bio-layer interferometry analyses of ATG8s binding to immobilized biotinylated LIR peptides were performed using an Octet Red 96 (ForteBio). […] Ligands-loaded SA biosensors were then incubated with different concentrations of ATG8. All binding experiments were performed in solid-black 96-well plates containing 200 μl of solution (25 mM Tris pH 7.5, 150 mM NaCl, 0.5 mM TCEP, 0.1% Tween20, 1 mg/ml BSA) in each well at 25 °C with an agitation speed of 1000 rpm. Each measurement was repeated 2 to 3 times. Dissociation constants for LIR-ATG8 interactions were determined from plotting the increase in BLI response as a function of the protein concentration and fitting using non-linear regression of ForteBio 7.1 data analysis and GraphPad Prism 7 softwares.
(§2) The following peptides were synthesized using FMOC solid phase peptide chemistry by the Francis CRICK Institute peptide chemistry science technology platform: […]

[2] = biological target: T2, GABARAPL1 (Homo sapiens, UniProt Q9H0R8); assay: Bio-layer interferometry (BLI) affinity of SCOC LIR peptides for GABARAPL1
T2 construct: GST-GABARAPL1 full-length (pAL); GST (followed by 3C protease cleavage site) (N); made in house
T2 sequence (Q9H0R8 whole entry): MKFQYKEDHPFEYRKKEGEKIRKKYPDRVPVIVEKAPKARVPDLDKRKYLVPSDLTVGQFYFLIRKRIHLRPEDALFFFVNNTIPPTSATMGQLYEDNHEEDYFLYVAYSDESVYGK
Procedure: as §1, §2

[3] = biological target: T3, LC3A (Homo sapiens, UniProt Q9H492); assay: Bio-layer interferometry (BLI) affinity of SCOC LIR peptides for LC3A
T3 construct: GST (followed by 3C protease cleavage site) (N); made in house
Procedure: as §1, §2

[4] = biological target: T4, LC3C (Homo sapiens, UniProt Q9BXW4); assay: Bio-layer interferometry (BLI) affinity of SCOC LIR peptides for LC3C
T4 construct: GST (followed by 3C protease cleavage site) (N); made in house
T4 sequence (Q9BXW4 whole entry): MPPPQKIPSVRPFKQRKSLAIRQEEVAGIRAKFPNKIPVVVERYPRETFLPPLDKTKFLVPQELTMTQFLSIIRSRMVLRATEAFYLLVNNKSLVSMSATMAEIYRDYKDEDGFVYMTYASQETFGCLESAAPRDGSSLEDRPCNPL
Procedure: as §1, §2

[5] = biological target: T5, LC3B (Homo sapiens, UniProt Q9GZQ8); assay: Bio-layer interferometry (BLI) affinity of SCOC LIR peptides for LC3B
T5 construct: GST (followed by 3C protease cleavage site) (N); made in house
Procedure: as §1, §2

[6] = biological target: T6, GABARAPL2 (Homo sapiens, UniProt P60520); assay: Bio-layer interferometry (BLI) affinity of SCOC LIR peptides for GABARAPL2
T6 construct: GST (followed by 3C protease cleavage site) (N); made in house
T6 sequence (P60520 whole entry): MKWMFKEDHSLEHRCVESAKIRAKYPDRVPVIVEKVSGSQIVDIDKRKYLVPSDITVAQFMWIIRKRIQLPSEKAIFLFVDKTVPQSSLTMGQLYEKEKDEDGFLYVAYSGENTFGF
Procedure: as §1, §2

[7] = BLI, wild-type, truncated and phosphorylated SCOC LIR peptides, Tris pH 7.5, 25 °C, average ± standard error of fit, n = 2, Figure 6A, read-out: Kd GAB
[8] = BLI, wild-type, truncated and phosphorylated SCOC LIR peptides, Tris pH 7.5, 25 °C, average ± standard error of fit, n = 2, Figure 6A, read-out: Kd GAB-L1
[9] = BLI, wild-type, truncated and phosphorylated SCOC LIR peptides, Tris pH 7.5, 25 °C, average ± standard error of fit, n = 2, Figure 6A, read-out: Kd LC3A
[10] = BLI, wild-type, truncated and phosphorylated SCOC LIR peptides, Tris pH 7.5, 25 °C, average ± standard error of fit, n = 2, Figure 6A, read-out: Kd LC3C
[11] = BLI, wild-type and phosphorylated SCOC LIR peptides, Tris pH 7.5, 25 °C, average ± standard error of fit, n = 2–3, Figure 4B, read-out: Kd GAB
[12] = BLI, wild-type and phosphorylated SCOC LIR peptides, Tris pH 7.5, 25 °C, average ± standard error of fit, n = 2–3, Figure 4B, read-out: Kd GAB-L1
[13] = BLI, wild-type and phosphorylated SCOC LIR peptides, Tris pH 7.5, 25 °C, average ± standard error of fit, n = 2–3, Figure 4B, read-out: Kd LC3B
[14] = BLI, wild-type and phosphorylated SCOC LIR peptides, Tris pH 7.5, 25 °C, average ± standard error of fit, n = 2–3, Figure 4B, read-out: Kd GAB-L2
[15] = BLI, wild-type and phosphorylated SCOC LIR peptides, Tris pH 7.5, 25 °C, average ± standard error of fit, n = 2–3, Figure 4B, read-out: Kd LC3A
[16] = BLI, wild-type and phosphorylated SCOC LIR peptides, Tris pH 7.5, 25 °C, average ± standard error of fit, n = 2–3, Figure 4B, read-out: Kd LC3C

T1 sequence (O95166 whole entry, the tested form may be a part): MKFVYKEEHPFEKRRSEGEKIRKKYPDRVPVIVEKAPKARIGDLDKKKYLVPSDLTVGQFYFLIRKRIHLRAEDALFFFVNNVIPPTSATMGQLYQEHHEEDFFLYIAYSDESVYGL

`CC[C@H](C)[C@H](NC(=O)[C@H](CC(=O)O)NC(=O)[C@H](CC(=O)O)NC(=O)[C@H](C)NC(=O)[C@H](CC(C)C)NC(=O)[C@H](CO)NC(=O)[C@@H](NC(=O)[C@H](CC(N)=O)NC(=O)[C@@H](NC(=O)[C@H](Cc1ccccc1)NC(=O)[C@@H](NC(=O)[C@H](CO)NC(=O)[C@H](CC(=O)O)NC(=O)[C@H](CCC(=O)O)NC(=O)[C@H](CCC(=O)O)NC(=O)[C@H](CCC(=O)O)NC(=O)[C@H](CCC(=O)O)NC(=O)[C@@H](N)CCCCN)[C@@H](C)O)[C@@H](C)O)[C@@H](C)CC)C(=O)N[C@@H](CC(=O)O)C(=O)N[C@@H](Cc1c[nH]cn1)C(N)=O` [SCOC WT] showed a Kd ([1]; BLI, biotinylated LIR peptide on streptavidin biosensor, Tris pH 7.5, 25 °C, average ± standard error of fit, n = 2, Figure 1E, Suppl. Figure 2A, read-out: Kd GABARAP) of 3.6 µM.

With `CC[C@H](C)[C@H](NC(=O)[C@H](CC(N)=O)NC(=O)[C@@H](NC(=O)[C@H](Cc1ccccc1)NC(=O)[C@@H](NC(=O)[C@H](CO)NC(=O)[C@H](CC(=O)O)NC(=O)[C@H](CCC(=O)O)NC(=O)[C@H](CCC(=O)O)NC(=O)[C@H](CCC(=O)O)NC(=O)[C@H](CCC(=O)O)NC(=O)[C@@H](N)CCCCN)[C@@H](C)O)[C@@H](C)O)C(=O)N[C@@H](COP(=O)(O)O)C(=O)N[C@@H](CC(C)C)C(=O)N[C@@H](C)C(N)=O` [SCOC aa 6-20/pS18] the Kd [1, 7] was 7.5 ± 0.8 µM, the Kd [2, 8] was 3.8 ± 0.3 µM and the Kd [3, 9] was 33.3 ± 4.8 µM. It also gave a Kd [4, 10] of 5 ± 0.5 µM.

`CC[C@H](C)[C@H](NC(=O)[C@H](CC(N)=O)NC(=O)[C@@H](NC(=O)[C@H](Cc1ccccc1)NC(=O)[C@@H](NC(=O)[C@H](CO)NC(=O)[C@H](CC(=O)O)NC(=O)[C@H](CCC(=O)O)NC(=O)[C@H](CCC(=O)O)NC(=O)[C@H](CCC(=O)O)NC(=O)[C@H](CCC(=O)O)NC(=O)[C@@H](N)CCCCN)[C@@H](C)O)[C@@H](C)O)C(=O)N[C@@H](CO)C(=O)N[C@@H](CC(C)C)C(=O)N[C@@H](C)C(N)=O` [SCOC aa 6-20] was tested, and the Kd [1, 7] was 8.5 ± 0.7 µM, the Kd [2, 8] was 6.8 ± 0.6 µM and the Kd [3, 9] was 209 ± 25 µM. It also gave a Kd [4, 10] of 21.3 ± 2.4 µM.

`CC[C@H](C)[C@H](NC(=O)[C@H](CC(=O)O)NC(=O)[C@H](CC(=O)O)NC(=O)[C@H](C)NC(=O)[C@H](CC(C)C)NC(=O)[C@H](COP(=O)(O)O)NC(=O)[C@@H](NC(=O)[C@H](CC(N)=O)NC(=O)[C@@H](NC(=O)[C@H](Cc1ccccc1)NC(=O)[C@@H](NC(=O)[C@H](COP(=O)(O)O)NC(=O)[C@H](CC(=O)O)NC(=O)[C@H](CCC(=O)O)NC(=O)[C@H](CCC(=O)O)NC(=O)[C@H](CCC(=O)O)NC(=O)[C@H](CCC(=O)O)NC(=O)[C@@H](N)CCCCN)[C@@H](C)O)[C@@H](C)O)[C@@H](C)CC)C(=O)N[C@@H](CC(=O)O)C(=O)N[C@@H](Cc1c[nH]cn1)C(N)=O` [pS12, pS18] was tested, and the Kd [1, 11] was 1 ± 0.1 µM, the Kd [2, 12] was 0.4 ± 0.03 µM and the Kd [5, 13] was 7.8 ± 0.9 µM. For the same compound, the Kd [6, 14] was 10.4 ± 0.5 µM, the Kd [3, 15] was 1.6 ± 0.2 µM and the Kd [4, 16] was 0.4 ± 0.04 µM.

For `CC[C@H](C)[C@H](NC(=O)[C@H](CC(=O)O)NC(=O)[C@H](CC(=O)O)NC(=O)[C@H](C)NC(=O)[C@H](CC(C)C)NC(=O)[C@H](CO)NC(=O)[C@@H](NC(=O)[C@H](CC(N)=O)NC(=O)[C@@H](NC(=O)[C@H](Cc1ccccc1)NC(=O)[C@@H](NC(=O)[C@H](COP(=O)(O)O)NC(=O)[C@H](CC(=O)O)NC(=O)[C@H](CCC(=O)O)NC(=O)[C@H](CCC(=O)O)NC(=O)[C@H](CCC(=O)O)NC(=O)[C@H](CCC(=O)O)NC(=O)[C@@H](N)CCCCN)[C@@H](C)O)[C@@H](C)OP(=O)(O)O)[C@@H](C)CC)C(=O)N[C@@H](CC(=O)O)C(=O)N[C@@H](Cc1c[nH]cn1)C(N)=O` [pS12, pT15], the Kd [1] was 1 ± 0.1 µM, the Kd [2] was 0.37 ± 0.04 µM and the Kd [5] was 4.8 ± 0.6 µM. The Kd [6] was 8.3 ± 0.4 µM, the Kd [3] was 0.7 ± 0.08 µM and the Kd [4] was 0.41 ± 0.04 µM.

For `CC[C@H](C)[C@H](NC(=O)[C@H](CC(=O)O)NC(=O)[C@H](CC(=O)O)NC(=O)[C@H](C)NC(=O)[C@H](CC(C)C)NC(=O)[C@H](CO)NC(=O)[C@@H](NC(=O)[C@H](CC(N)=O)NC(=O)[C@@H](NC(=O)[C@H](Cc1ccccc1)NC(=O)[C@@H](NC(=O)[C@H](COP(=O)(O)O)NC(=O)[C@H](CC(=O)O)NC(=O)[C@H](CCC(=O)O)NC(=O)[C@H](CCC(=O)O)NC(=O)[C@H](CCC(=O)O)NC(=O)[C@H](CCC(=O)O)NC(=O)[C@@H](N)CCCCN)[C@@H](C)O)[C@@H](C)O)[C@@H](C)CC)C(=O)N[C@@H](CC(=O)O)C(=O)N[C@@H](Cc1c[nH]cn1)C(N)=O` [pS12], the Kd [1, 11] was 1.5 ± 0.1 µM, the Kd [2, 12] was 0.88 ± 0.08 µM and the Kd [5, 13] was 41.6 ± 4.6 µM. The Kd [6, 14] was 12.8 ± 1.3 µM, the Kd [3, 15] was 3 ± 0.4 µM and the Kd [4, 16] was 1.4 ± 0.1 µM.

With `CC[C@H](C)[C@H](NC(=O)[C@H](CC(=O)O)NC(=O)[C@H](CC(=O)O)NC(=O)[C@H](C)NC(=O)[C@H](CC(C)C)NC(=O)[C@H](COP(=O)(O)O)NC(=O)[C@@H](NC(=O)[C@H](CC(N)=O)NC(=O)[C@@H](NC(=O)[C@H](Cc1ccccc1)NC(=O)[C@@H](NC(=O)[C@H](CO)NC(=O)[C@H](CC(=O)O)NC(=O)[C@H](CCC(=O)O)NC(=O)[C@H](CCC(=O)O)NC(=O)[C@H](CCC(=O)O)NC(=O)[C@H](CCC(=O)O)NC(=O)[C@@H](N)CCCCN)[C@@H](C)O)[C@@H](C)O)[C@@H](C)CC)C(=O)N[C@@H](CC(=O)O)C(=O)N[C@@H](Cc1c[nH]cn1)C(N)=O` [pS18] the Kd [1, 11] was 3.9 ± 0.3 µM, the Kd [2, 12] was 2.1 ± 0.1 µM and the Kd [5, 13] was 48.9 ± 8.6 µM. The Kd [6, 14] was 26 ± 2.4 µM, the Kd [3, 15] was 4.9 ± 0.4 µM and the Kd [4, 16] was 1.9 ± 0.2 µM.

With `CC[C@H](C)[C@H](NC(=O)[C@H](CC(=O)O)NC(=O)[C@H](CC(=O)O)NC(=O)[C@H](C)NC(=O)[C@H](CC(C)C)NC(=O)[C@H](CO)NC(=O)[C@@H](NC(=O)[C@H](CC(N)=O)NC(=O)[C@@H](NC(=O)[C@H](Cc1ccccc1)NC(=O)[C@@H](NC(=O)[C@H](CO)NC(=O)[C@H](CC(=O)O)NC(=O)[C@H](CCC(=O)O)NC(=O)[C@H](CCC(=O)O)NC(=O)[C@H](CCC(=O)O)NC(=O)[C@H](CCC(=O)O)NC(=O)[C@@H](N)CCCCN)[C@@H](C)OP(=O)(O)O)[C@@H](C)O)[C@@H](C)CC)C(=O)N[C@@H](CC(=O)O)C(=O)N[C@@H](Cc1c[nH]cn1)C(N)=O` [pT13] the Kd [1] was 3.1 ± 0.3 µM, the Kd [2] was 2 ± 0.2 µM and the Kd [5] was 193 ± 29 µM. It also gave a Kd [6] of 33.8 ± 2.6 µM, a Kd [3] of 10.1 ± 1.5 µM and a Kd [4] of 5 ± 0.5 µM.

With `CC[C@H](C)[C@H](NC(=O)[C@H](CC(=O)O)NC(=O)[C@H](CC(=O)O)NC(=O)[C@H](C)NC(=O)[C@H](CC(C)C)NC(=O)[C@H](CO)NC(=O)[C@@H](NC(=O)[C@H](CC(N)=O)NC(=O)[C@@H](NC(=O)[C@H](Cc1ccccc1)NC(=O)[C@@H](NC(=O)[C@H](CO)NC(=O)[C@H](CC(=O)O)NC(=O)[C@H](CCC(=O)O)NC(=O)[C@H](CCC(=O)O)NC(=O)[C@H](CCC(=O)O)NC(=O)[C@H](CCC(=O)O)NC(=O)[C@@H](N)CCCCN)[C@@H](C)O)[C@@H](C)OP(=O)(O)O)[C@@H](C)CC)C(=O)N[C@@H](CC(=O)O)C(=O)N[C@@H](Cc1c[nH]cn1)C(N)=O` [pT15] the Kd [1] was 3 ± 0.3 µM, the Kd [2] was 1.2 ± 0.1 µM and the Kd [5] was 37.4 ± 4.5 µM. The Kd [6] was 44 ± 4.5 µM, the Kd [3] was 3.7 ± 0.5 µM and the Kd [4] was 3.6 ± 0.4 µM.

From paper PMC8202330, “Phosphorylation of the LIR Domain of SCOC Modulates ATG8 Binding Affinity and Specificity” (Journal of Molecular Biology, 2021)
